Data as given in ChEMBL document CHEMBL1127699, “Inhibitors of acyl-CoA:cholesterol acyltransferase. 1. Synthesis and hypocholesterolemic activity of dibenz[b,e]oxepin-11-carboxanilides” (J Med Chem, 1994).

Key:
[1] = molecular target: T1, Acyl-CoA:cholesterol acyltransferase (Oryctolagus cuniculus, UniProt Q95214); assay: In vitro inhibitory activity against acyl coenzyme A:cholesterol acyltransferase in liver microsomes isolated from cholesterol-fed rabbits; set-up: species or system Microsome
T1 sequence (Q95214 whole entry): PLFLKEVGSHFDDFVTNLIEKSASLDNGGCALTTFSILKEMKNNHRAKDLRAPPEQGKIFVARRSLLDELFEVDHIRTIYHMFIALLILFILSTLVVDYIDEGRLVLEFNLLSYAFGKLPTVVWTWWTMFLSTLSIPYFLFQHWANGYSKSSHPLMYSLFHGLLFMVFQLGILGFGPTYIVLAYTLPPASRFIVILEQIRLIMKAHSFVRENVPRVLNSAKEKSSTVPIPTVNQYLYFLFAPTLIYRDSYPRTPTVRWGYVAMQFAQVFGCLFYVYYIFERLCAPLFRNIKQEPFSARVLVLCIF

[2] = system: Cricetinae gen. sp.; assay: In vivo hypocholesterolemic activity in golden hamsters, fed with a diet containing 2% cholesterol at a dose of 100 mg/kg; format: functional, Mesocricetus auratus
[3] = system: Cricetinae gen. sp.; assay: (§1) In vivo hypocholesterolemic activity in golden hamsters, fed with a diet containing 2% cholesterol at a dose of 10 mg/kg, po; format: functional, Mesocricetus auratus
[4] = molecular target: T2, Acyl-CoA:cholesterol acyltransferase (Oryctolagus cuniculus) (UniProt Q95214); assay: In vitro inhibitory activity against Acyl coenzyme A:cholesterol acyltransferase in liver microsomes isolated from cholesterol-fed rabbits; conditions: Microsome, concentration not given here
T2 sequence (whole entry): T1 sequence (Q95214 whole entry)

[5] = system: Mesocricetus auratus; assay: In vivo hypocholesterolemic activity in golden hamsters, fed with a diet containing 2% cholesterol at a dose of 30 mg/kg, po
[6] = system: Cricetinae gen. sp.; assay: (§2) In vivo hypocholesterolemic activity in golden hamsters, fed with a diet containing 2% cholesterol at a dose of 30 mg/kg, po; format: functional, Mesocricetus auratus
[7] = system: Cricetinae gen. sp.; assay: as §2; format: functional, Cricetulus griseus
[8] = molecular target: T2, Acyl-CoA:cholesterol acyltransferase (Oryctolagus cuniculus); assay: In vitro inhibitory activity against Acyl coenzyme A:cholesterol acyltransferase in liver microsomes isolated from cholesterol-fed rabbits at 1 uM; conditions: Microsome
[9] = system: Cricetinae gen. sp.; assay: as §1; format: functional
[10] = system: Rattus norvegicus; assay: Effect on liver cholesterol levels in male Dawley rats at a dose of 3 mg/kg/day, po (p<=0.01); format: functional
[11] = system: Rattus norvegicus; assay: Effect on liver cholesterol levels in male Dawley rats at a dose of 30 mg/kg/day, po (p<=0.01); format: functional
[12] = system: Rattus norvegicus; assay: Effect on serum cholesterol levels in male Dawley rats at a dose of 1 mg/kg/day, po (p<=0.05); format: functional
[13] = system: Rattus norvegicus; assay: Effect on serum cholesterol levels in male Dawley rats at a dose of 10 mg/kg/day, po (p<=0.01); format: functional
[14] = system: Rattus norvegicus; assay: Effect on serum cholesterol levels in male Dawley rats at a dose of 3 mg/kg/day, po (p<=0.01); format: functional
[15] = system: Rattus norvegicus; assay: Effect on serum cholesterol levels in male Dawley rats at a dose of 30 mg/kg/day, po (p<=0.01); format: functional
[16] = system: Rattus norvegicus; assay: Effect on liver cholesterol levels in male Dawley rats at a dose of 1 mg/kg/day, po (p<=0.01); format: functional
[17] = system: Rattus norvegicus; assay: Effect on liver cholesterol levels in male Dawley rats at a dose of 10 mg/kg/day, po (p<=0.01); format: functional

SMILES | IC50 [1] [µM] | Reduction [2] [%] | other results
Cc1ccc2c(c1)C(C(=O)Nc1c(Br)cccc1Br)c1ccccc1CO2 (configuration not stated) | 0.19 | 6 | 
CCc1cccc(CC)c1NC(=O)C1c2ccccc2COc2ccc(C(C)C)cc21 (configuration not stated) | 0.5 | 25 | 
COC(=O)c1ccc2c(c1)C(C(=O)Nc1c(C(C)C)cccc1C(C)C)c1ccccc1CO2 (configuration not stated) | 0.18 | 89 | 
CC(C)c1cccc(C(C)C)c1NC(=O)C1c2ccccc2CCc2ccc(Br)cc21 (configuration not stated) | 0.039 |  | Reduction [3]: 42%
O=C(Nc1ccc(F)cc1F)C1c2ccccc2COc2ccc(Br)cc21 (configuration not stated) | 0.58 |  | 
Cc1cc(C(=O)O)c2c(c1)C(C(=O)Nc1c(C(C)C)cccc1C(C)C)c1ccccc1CO2 (configuration not stated) |  |  | inhibition [4]: 28%
Cc1cc(Br)c2c(c1)C(C(=O)Nc1c(C(C)C)cccc1C(C)C)c1ccccc1CO2 (configuration not stated) | 0.1 |  | Reduction [5]: 67%
CC(C)c1cccc(C(C)C)c1NC(=O)C1c2ccccc2C(=O)N(C)c2ccc(Br)cc21 (configuration not stated) | 0.24 |  | 
CC(C)c1cccc(C(C)C)c1NC(=O)C1c2ccccc2COc2cc(Br)ccc21 (configuration not stated) | 0.18 | -2 | 
CC(C)c1cccc(C(C)C)c1NC(=O)C1c2ccccc2COc2ccc(C(F)(F)F)cc21 (configuration not stated) | 0.16 |  | Reduction [5]: 63%
Cc1cc(C)c(NC(=O)C2c3ccccc3COc3ccc(C)cc32)c(C)c1 (configuration not stated) | 0.11 |  | 
CCc1cccc(CC)c1NC(=O)C1c2ccccc2COc2ccc(C)cc21 (configuration not stated) | 0.27 | 49 | 
Cc1ccc2c(c1)C(C(=O)Nc1ccccc1)c1ccccc1CO2 (configuration not stated) |  | 10 | inhibition [4]: 15%
CC(C)c1cccc(C(C)C)c1NC(=O)C1c2ccccc2CCc2ccccc21 | 0.04 |  | Reduction [3]: 3%; Reduction [6]: 89%
CC(C)c1cccc(C(C)C)c1NC(=O)C1c2cc(Br)ccc2COc2ccc(Br)cc21 (configuration not stated) | 0.058 |  | Reduction [5]: 40%
Cc1ccc2c(c1)C(C(=O)Nc1c(C(C)C)cccc1C(C)C)c1ccccc1CO2 (configuration not stated) | 0.05 | 106 | Reduction [5]: 70%
Cc1ccc2c(c1)C(C(=O)Nc1c(C(C)C)cccc1C(C)C)c1ccccc1CC2 (configuration not stated) | 0.055 |  | Reduction [3]: -1%; Reduction [6]: 93%
Cc1ccc2c(c1)C(C(=O)Nc1c(C(C)C)cccc1C(C)C)c1cc(Br)ccc1CO2 (configuration not stated) | 0.12 |  | Reduction [5]: 17%
CCc1ccc2c(c1)C(C(=O)Nc1c(C(C)C)cccc1C(C)C)c1ccccc1CO2 (configuration not stated) | 0.13 | 51 | 
CC(C)c1cccc(C(C)C)c1NC(=O)C1c2ccccc2OCc2ncccc21 (configuration not stated) | 0.64 |  | 
CC(C)c1cccc(C(C)C)c1NC(=O)C1c2ccccc2COc2ccc(C(=O)O)cc21 (configuration not stated) |  |  | inhibition [4]: 1%
COc1ccc2c(c1)C(C(=O)Nc1c(C(C)C)cccc1C(C)C)c1ccccc1CO2 (configuration not stated) | 0.14 |  | Reduction [5]: 22%
Cc1ccc2c(c1)C(C(=O)Nc1ccccc1C(C)C)c1ccccc1CO2 (configuration not stated) | 0.73 | 18 | 
Cc1cccc(C)c1NC(=O)C1c2ccccc2COc2ccc(C(C)C)cc21 (configuration not stated) | 0.36 |  | 
CC(C)c1cccc(C(C)C)c1NC(=O)C1c2ccccc2COc2ccc([N+](=O)[O-])cc21 (configuration not stated) | 0.24 |  | 
CC(C)c1cccc(C(C)C)c1NC(=O)C1c2ccccc2COc2ccc(C#N)cc21 (configuration not stated) | 0.49 |  | eduction [7]: -6%

SMILES | IC50 [1] [µM] | Reduction [2] [%] | other results
CC(C)c1cccc(C(C)C)c1NC(=O)C1c2ccccc2CSc2ccc(Br)cc21 (configuration not stated) | 0.15 |  | Reduction [6]: 67%
CCCCCCCN(Cc1ccc(CC(C)(C)C)cc1)C(=O)Nc1ccc(F)cc1F [CL-277082] |  |  | Reduction [3]: 35%; Reduction [6]: 71%
CC(C)c1cccc(C(C)C)c1NC(=O)C1c2ccccc2COc2ccc(Cl)cc21 (configuration not stated) | 0.15 | 97 | 
CC(C)c1cccc(C(C)C)c1NC(=O)C1c2cc(Br)ccc2COc2ccccc21 (configuration not stated) | 0.19 |  | Reduction [5]: 8%
O=C(Nc1c(Cl)cccc1Cl)C1c2ccccc2COc2ccc(Br)cc21 (configuration not stated) | 0.074 |  | Reduction [5]: 0%
Cc1ccc2c(c1)C(C(=O)Nc1c(C)cccc1Cl)c1ccccc1CO2 (configuration not stated) | 0.26 |  | 
Cc1cc2c(cc1C)C(C(=O)Nc1c(C(C)C)cccc1C(C)C)c1ccccc1CO2 (configuration not stated) | 0.064 |  | Reduction [5]: 27%
CC(C)c1cccc(C(C)C)c1NC(=O)C1c2cc(Br)ccc2OCc2ncccc21 (configuration not stated) | 0.078 |  | Reduction [5]: 47%
CC(C)c1cccc(C(C)C)c1NC(=O)C1c2ccccc2COc2ccc(F)cc21 (configuration not stated) | 0.21 | 53 | 
CC(C)c1cccc(C(C)C)c1NC(=O)C1c2ccccc2COc2ccc(CO)cc21 (configuration not stated) | 0.58 |  | 
CCc1cccc(CC)c1NC(=O)C1c2ccccc2COc2ccc(Br)cc21 (configuration not stated) | 0.25 | 64 | 
CC(C)c1cccc(C(C)C)c1NC(=O)C1c2ccccc2C=Cc2ccccc21 | 0.025 |  | Reduction [6]: 73%
Cc1ccc2c(c1)C(/C(S)=N/c1c(C(C)C)cccc1C(C)C)c1ccccc1CO2 (configuration not stated) |  |  | inhibition [8]: 15%
COC(=O)c1cc(C)cc2c1OCc1ccccc1C2C(=O)Nc1c(C(C)C)cccc1C(C)C (configuration not stated) | 0.027 |  | Reduction [9]: 28%; Reduction [5]: 84%
CC(C)c1cccc(C(C)C)c1NC(=O)C1c2ccccc2COc2ccccc21 (configuration not stated) | 0.094 | 2 | 
CC(C)c1cccc(C(C)C)c1NC(=O)C1c2ccccc2COc2ccc(Br)cc21 (configuration not stated) | 0.023 | 143 | Reduction [9]: 101%; Cholesterol level [10]: 15 mg/g; Cholesterol level [11]: 6.3 mg/g; Cholesterol level [12]: 214 mg/dL; Cholesterol level [13]: 114 mg/dL; Cholesterol level [14]: 167 mg/dL; Cholesterol level [15]: 108 mg/dL; Cholesterol level [16]: 19.2 mg/g; Cholesterol level [17]: 10.4 mg/g; Reduction [5]: 114%
Cc1ccc2c(c1)C(C(=O)Nc1c(Cl)cccc1Cl)c1ccccc1CO2 (configuration not stated) | 0.19 | 25 | 
CSc1ccc2c(c1)C(C(=O)Nc1c(C(C)C)cccc1C(C)C)c1ccccc1CO2 (configuration not stated) | 0.007 |  | Reduction [5]: 5%
CC(C)c1cccc(C(C)C)c1NC(=O)C1c2ccccc2COc2ccc(C(=O)N(C)C)cc21 (configuration not stated) | 0.4 |  | 
CC(C)c1cccc(C(C)C)c1/N=C(\S)C1c2ccccc2COc2ccc(Br)cc21 (configuration not stated) |  |  | inhibition [4]: 33%
Cc1ccc2c(c1)C(C(=O)Nc1c(C)cccc1C)c1ccccc1CO2 (configuration not stated) | 0.35 | 25 | 
Cc1cccc(C)c1NC(=O)C1c2ccccc2COc2ccc(C(C)(C)C)cc21 (configuration not stated) | 0.5 | -42 | 
COc1cc(OC)c(NC(=O)C2c3ccccc3COc3ccc(C)cc32)c(OC)c1 (configuration not stated) | 0.58 |  | 
O=C(Nc1c(Cl)cccc1Cl)C1c2ccccc2COc2cc(Br)ccc21 (configuration not stated) | 0.94 |  | 
CC(C)(C)c1ccc2c(c1)C(C(=O)Nc1c(Cl)cccc1Cl)c1ccccc1CO2 (configuration not stated) | 0.42 |  | 
CC(C)c1cccc(C(C)C)c1NC(=O)C1c2ccccc2COc2ccc(I)cc21 (configuration not stated) | 0.035 |  | Reduction [5]: 73%
